Consider 14 compounds from patent US5885994A, “Tetrahydroquinoxaline dopamine D4 receptor antagonists” (Warner-Lambert Company, priority 1998, dated 1999).

Molecules are shown by their SMILES. Like-named read-outs stand apart in the source and are kept apart here.

As usually defined, the IC50 is the point on the concentration scale where inhibition reaches its midpoint. Low values mean greater potency in that assay, high ones weaker potency in that assay. By ED50 is commonly meant the dose that gives a 50% effect, or the effect in half of the subjects.

One assay addresses T1, human D4.2 receptor (Homo sapiens, UniProt P21917, DEL265-296).
T1 construct: expressed in transfected cells; host or cells: CHO K1 cells
T1 sequence (P21917 with tags, fused parts or gaps DEL265-296): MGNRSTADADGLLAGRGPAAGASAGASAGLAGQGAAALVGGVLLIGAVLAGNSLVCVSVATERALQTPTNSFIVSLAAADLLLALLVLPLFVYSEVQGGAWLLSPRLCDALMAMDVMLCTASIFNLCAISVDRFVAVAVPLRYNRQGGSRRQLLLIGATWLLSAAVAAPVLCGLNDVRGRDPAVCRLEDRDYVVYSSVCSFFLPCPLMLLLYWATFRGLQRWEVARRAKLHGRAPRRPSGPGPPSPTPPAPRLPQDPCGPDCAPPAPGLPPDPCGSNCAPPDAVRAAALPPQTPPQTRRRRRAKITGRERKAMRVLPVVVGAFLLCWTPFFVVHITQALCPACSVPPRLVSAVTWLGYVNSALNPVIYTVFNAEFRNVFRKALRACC
Kind of assay: Inhibition of [3H]spiperone binding to human dopamine D4.2 receptors. The following applies: human D4.2, CHO K1 membranes. An excerpt:
(§1) A cell line expressing human dopamine D2 (Long form) receptors was purchased from Oregon Health Sciences University, Portland, Oreg. The D2 receptor cDNA was subcloned into an expression vector, pRc/CMV. The plasmids were transfected by electroporation into CHO K1 cells. A single stable transfectant, resistant to the antibiotic 418, was isolated and selected for use in the binding studies. For D4 binding, CHO K1 cells stably transfected to express the human recombinant dopamine D4.2 receptor subtype, as described by Shih, et al., "The expression and functional characterization of human dopamine D4.2 receptor in CHO K1 cells," Soc. Neurosci., 1995;21(Part 1):621.
(§2) CHO K1 cells expressing either human D2 and D4.2 receptors were grown in 162 cm^2 culture flasks in F12 medium (Gibco Laboratories, Grand Island, N.Y.) supplemented with 10% fetal bovine serum (FBS, Hyclone, Logan, Utah) in an atmosphere of 5% CO2 /95% air at 37° C. Cells were grown until confluent, after which growth medium was removed and replaced with 0.02% ethylene diamine tetracetate (EDTA) in a phosphate-buffered saline solution (Sigma Chemical Co., St. Louis, Mo.) and scraped from the flasks. The cells were centrifuged at about 1000×g for 10 minutes at […] and then resuspended in TEM buffer (25 mM Tris-HCl, pH 7.4, 5 mM EDTA, and 6 mM MgCl2) for D2 or the D4.2 buffer (50 mM Tris-HCl, pH 7.4, 5 mM EDTA, 1.5 mM CaCl2, 5 mM KCl, and 120 mM NaCl) and homogenized. The membranes were pelleted by centrifugation at 20,000×g at […] for 20 minutes. Then the pellets were resuspended in appropriate buffer at 1 mL/flask and stored at -70° C. until used in the receptor binding assay.
(§3) Receptor Binding Assays: D2,D4.2 Dopamine Receptors
(§4) After 60 minutes incubation at 25° C., the incubations were terminated by rapid filtration through Whatmann F/B lass fibre filters (soaked for 1 hour in 0.5% polyethylenimine) on a cell harvester, with three washes of 1 mL ice-cold buffer. Individual filter disks containing the bound ligand were placed in counting vials with 4 mL of scintillation fluid (Ready Gel, Beckman Instrument Inc., Fullerton, Calif.) and then counted in a Beckman LS-6800 liquid scintillation counter at an efficiency of 45%. Nonspecific binding was defined in presence of 1 mM of haloperidol.
(§5) Saturation and competition binding data were analyzed using an iterative nonlinear least-square curve-fitting Ligand program. In competition experiments, apparent Ki values were calculated from IC50 values by method of Cheng and Prusoff, "Relationship between the inhibition constant (Ki) and the concentration of inhibitor which causes 50% inhibition (IC50) of an enzymatic reaction," Biochem. Pharmacol., 1973;22:3099-3108. Experimental compounds were made up as stock solutions in dimethyl sulfoxide (DMSO). […] Each observation was carried out in triplicate. To allow these calculations, Ki values were measured for the interaction of various ligands with the receptor. […]

In another assay the target is T2, human DA D4.2 receptor (Homo sapiens, UniProt P21917, DEL265-296).
T2 construct: expressed in transfected cells
T2 sequence (P21917 with tags, fused parts or gaps DEL265-296): T1 sequence (P21917 with tags, fused parts or gaps DEL265-296)
Description: [3H]Thymidine uptake assay (block of quinpirole stimulation in CHO pro-5 cells transfected with human DA D4.2 receptor). It counts as cell-based. Conditions: human D4.2, quinpirole-stimulated uptake. Here is the method: Compounds were tested for their ability to bind to dopamine (DA) receptors as measured by their inhibition of [^3 H]spiperone binding to the human D2, and D4.2 receptors (Pugsley, et al., 1995). The ability of test compounds to block the stimulation of [^3 H]thymidine uptake in CHO pro-5 cells transfected with human DA D4.2 receptor cDNA caused by the DA agonist quinpirole was employed as an in vitro measure of DA receptor antagonist activity (Pugsley, et al., 1995). The effects of compounds on synthesis rates of rat brain catecholamines were estimated by measuring the accumulation of [3-(3,4-dihydroxyphenyl)-L-alanine (DOPA) after administration of the L-aromatic amino acid decarboxylase inhibitor, NSD 1015 (Pugsley, et al., 1995).
[^3 H]Thymidine Uptake Assay
The effects of test compounds on [^3 H]thymidine uptake were carried out essentially as described by Pugsley, et al., 1995. CHO p-5 cells transfected with human D4.2 cDNA were seeded into 96-well plates at a density of about 5000 cells/well and were grown at 37° C. in a minimum essential medium (aMEM, Gibco) with 10% calf serum for 2 days. The wells were then rinsed three times with serum-free media. Fresh media ([…]) was added along with […] of test compound in water or vehicle alone. Eight wells of each plate received […] of aMEM with 10% fetal calf serum. After culture for 16 to 17 hours, [3H]thymidine ([…]) was added for 4 hours. The cells were trypsinized and harvested onto filter mats with a 96-well Brandel cell harvester. The filters were counted in a Beta-Plate scintillation counter.

Assay [1] relates to synthesis rates of rat brain catecholamines. The following applies: ip.
Description: Test compounds were administered to rats i.p. 30 minutes before the injection of the L-aromatic amino acid decarboxylase inhibitor, NSD 1015 (100 mg/kg i.p.). Rats were sacrificed by decapitation 30 minutes later. The striatum and mesolimbic regions were rapidly dissected from the brains and stored at -70° C. until assayed. Synthesis rates of rat brain catecholamines were estimated by measuring the accumulation of the DA precursor DOPA after NSD 1015 administration by HPLC with electrochemical detection (Puglsey, et al., 1995). Each value represents the mean of four determinations and is expressed as a percent of the control values.
Assay [2] concerns apomorphine-induced disruption of prepulse inhibition. The following applies: rat, background statement; cited from earlier work.
Assay [3] deals with amphetamine-stimulated locomotion. Kind of assay: Blockade of amphetamine-stimulated locomotion in rats. It counts as in vivo, rat. An excerpt: PROTOCOL FOR THE BLOCKADE OF AMPHETAMINE-STIMULATED LOCOMOTION IN RATS
The blockade of amphetamine-stimulated locomotion procedure is a modification of the Locomotor Activity Protocol in the Omnitech Digiscan Activity Monitors described above. The blockade of amphetamine-stimulated locomotion procedure uses the central nervous system stimulant d-amphetamine to assess antipsychotic activity of dopaminergic agents.
Male Sprague-Dawley rats (Harlan Labs) were used for these studies. Drugs were dissolved in saline or water, and administered either orally (PO) or intraperitoneally (IP) in volumes of 5 mL/kg. Saline control rats and amphetamine (0.5 mg/kg IP) control rats are included with each study (n=4-6 rats per treatment group). For the IP studies, amphetamine is given 20 minutes prior to the drug, after which a 30 minute locomotor activity test is conducted. For the oral study, drug is dosed 30 minutes prior to the test, while amphetamine is given 15 minutes prior to the test, which allows time for oral absorption. Locomotor activity (centimeters travelled per 30 minute test) is measured in 16"×16" open chambers. Amphetamine generally produces a 2- to 3-fold increase in locomotion over saline controls. Drug effects are reported as percent reversal of amphetamine-stimulated locomotion. Significant changes in amphetamine-stimulated locomotion, relative to amphetamine treated controls, were determined by t-test. The dose which would reverse amphetamine-stimulated locomotion by 50% (ED50) and the 95% confidence limits were estimated by regression analysis.

For the next assay, the target named is human D2 receptor (Homo sapiens, UniProt P14416). Description: Inhibition of [3H]spiperone binding to human dopamine D2 receptors. Conditions: human D2 (Long form), CHO K1 membranes.
Sequence of human D2 receptor (P14416 whole entry): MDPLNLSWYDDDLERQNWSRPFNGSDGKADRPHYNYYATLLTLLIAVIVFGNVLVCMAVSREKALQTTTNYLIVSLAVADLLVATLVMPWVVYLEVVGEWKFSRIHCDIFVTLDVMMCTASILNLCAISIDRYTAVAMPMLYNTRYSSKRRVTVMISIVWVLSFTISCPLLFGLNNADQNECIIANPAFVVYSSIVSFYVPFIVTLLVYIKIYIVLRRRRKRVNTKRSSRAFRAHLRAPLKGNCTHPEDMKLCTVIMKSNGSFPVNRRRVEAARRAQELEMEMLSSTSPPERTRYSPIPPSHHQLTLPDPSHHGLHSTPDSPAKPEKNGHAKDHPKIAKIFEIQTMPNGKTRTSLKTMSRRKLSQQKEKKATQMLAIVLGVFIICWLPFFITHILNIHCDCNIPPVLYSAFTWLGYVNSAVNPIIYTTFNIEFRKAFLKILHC
Excerpt: as §1, §2, §3, §4, §5

Regarding `Cc1ccc(N2CCN(Cc3ccc4c(c3)NCCN4)CC2)cc1` [Example 8, 6-(4-p-Tolylpiperazin-1-ylmethyl)-1,2,3,4-tetrahydroquinoxaline], the half-maximal inhibitory concentration (IC50) on human D4.2 receptor came to 11.1 nM; against human DA D4.2 receptor, 8.2 nM. The “DA Synthesis in Rat Striatum” value in assay [1] is on record as “+39% of the control values”.
With `CN1CCc2cccc3c2[C@H]1Cc1ccc(O)c(O)c1-3` [apomorphine], the “blocking of PPI by DA agonists (result in words)” value in assay [2] is on record as “can be blocked”.
`Fc1ccc(N2CCN(Cc3ccc4c(c3)NCCN4)CC2)cc1` [Example 6, 6-[4-(4-Fluorophenyl)piperazin-1-ylmethyl]-1,2,3,4-tetrahydroquinoxaline] showed an IC50 at human D4.2 receptor of 50.6 nM.
As to `Clc1ccc(N2CCN(Cc3ccc4c(c3)NCCN4)CC2)cc1Cl` [Example 7, 6-[4-(3,4-Dichlorophenyl)piperazin-1-ylmethyl]-1,2,3,4-tetrahydroquinoxaline], the IC50 on human D4.2 receptor is 5 nM; at human D2 receptor, 1650 nM. The “blockade of amphetamine-stimulated locomotion” value in assay [3] (rat, 30 mg/kg PO) was determined as 100%. Further, the “DA Synthesis in Rat Striatum” value in assay [1] was “+23% of the control values”.
For `CC(N)Cc1ccccc1` (stereo not drawn) [amphetamine], the “blocking of PPI by DA agonists (result in words)” value in assay [2] is given as “can be blocked”.
For `FC(F)(F)c1cccc(N2CCN(Cc3ccc4c(c3)NCCN4)CC2)c1` [Example 11, 6-[4-(3-Trifluoromethylphenyl)piperazin-1-ylmethyl]-1,2,3,4-tetrahydroquinoxaline], the IC50 on human D4.2 receptor is 22 nM; on human D2 receptor, 683 nM.
For `O=C(CCCN1CCC(O)(c2ccc(Cl)cc2)CC1)c1ccc(F)cc1` [haloperidol], in assay [2], the “antagonism of DA agonist-induced disruption of PPI (result in words)” value is “can be antagonized”.
On to `CN1CCN(C2=Nc3cc(Cl)ccc3Nc3ccccc32)CC1` [clozapine], for which, in assay [2], the “antagonism of DA agonist-induced disruption of PPI (result in words)” value is “can be blocked”.
Take `Clc1ccc(N2CCN(Cc3ccc4c(c3)NCCN4)CC2)cc1` [Example 5, 6-[4-(4-Chlorophenyl)piperazin-1-ylmethyl]1,2,3,4-tetrahydroquinoxaline]: the values for the IC50 at human D4.2 receptor and against human DA D4.2 receptor were 6 nM and 19 nM, respectively. Also, the “DA Synthesis in Rat Striatum” value in assay [1] was “+20% of the control values”.
On human D4.2 receptor, `COc1ccc(N2CCN(Cc3ccc4c(c3)NCCN4)CC2)cc1` [Example 4, 6-[4-(4-Methoxyphenyl)piperazin-1-ylmethyl]-1,2,3,4-tetrahydroquinoxaline] returned an IC50 of 39.3 nM.
The same measure, in the same setting: in the case of `Cc1ccnc(N2CCN(Cc3ccc4c(c3)NCCN4)CC2)c1` [Example 10, 6-[4-(4-Methylpyridin-2-yl)piperazin-1-ylmethyl]-1,2,3,4-tetrahydroquinoxaline] it was 35 nM.
For the compound `c1ccc(N2CCN(Cc3ccc4c(c3)NCCN4)CC2)cc1` [Example 3, 6-(4-Phenylpiperazin-1-ylmethyl)-1,2,3,4-tetrahydroquinoxaline], the figures for the half-inhibitory concentration (IC50) on human D4.2 receptor and at human D2 receptor were 50 nM and 3200 nM, respectively.
With `Cc1ccc(N2CCN(Cc3ccc4c(c3)NCCN4)CC2)cc1Cl` [Example 1, 6-[4-(3-Chloro-4-methylphenyl)piperazin-1-ylmethyl]-1,2,3,4-tetrahydroquinoxaline], the IC50 was determined as 3.9 nM at human D4.2 receptor, 10 nM at human DA D4.2 receptor and 1810 nM on human D2 receptor. The “blockade of amphetamine-stimulated locomotion (result in words)” value in assay [3] (rat, 3, 10, and 30 mg/kg IP) is “dose-dependent blockade”. Moreover, the ED50 in assay [3] (rat, IP, read-out: blockade of amphetamine-stimulated locomotion ED50) was 9.1 mg/kg; in assay [3] (rat, PO, read-out: oral blockade of amphetamine-stimulated locomotion ED50), over 30 mg/kg. Moreover, the “DA Synthesis in Rat Hippocampus” value in assay [1] is recorded as “+62% of the control values”. For the same compound, the “DA Synthesis in Rat Striatum” value in assay [1] was -9% of the control values.
With `Cc1cccc(N2CCN(Cc3ccc4c(c3)NCCN4)CC2)c1` [Example 9, 6-(4-m-Tolylpiperazin-1-ylmethyl)-1,2,3,4-tetrahydroquinoxaline], the IC50 at human D4.2 receptor was found to be 36.3 nM.
